How the values were obtained:
[1] = test system: 2LMP human breast cancer xenografts; assay: TRA-8 therapy alone or with chemotherapy or radiation, breast cancer xenografts; assay type: in vivo, athymic nude mice; details: aggregate of 6 experiments
Method: Athymic nude mice were injected s.c. with 3×10^7 2LMP cells. […] The growth of tumors was monitored over time. […] Tumor size and regression rates were determined.
Data from 6 independent experiments were analyzed by individual experiment. Treatment combinations were compared with respect to in vivo anti-tumor efficacy, i.e., inhibition of tumor growth, which was measured as three endpoints; extension of tumor doubling times, percentage of tumor regressions, and growth rates over time. The actual number of days at which the tumor doubled in surface area (product of two diameters) relative to baseline on day 7 after tumor cell injection was used in the doubling time analysis. The nonparametric Kruskal-Wallis test was used for median tumor doubling time comparisons between treatments. Fisher's exact test was used to compare the proportions of tumor regressions and relapse-free regressions across treatment groups. To determine if any combination therapy produced significant synergistic inhibition of tumor growth, i.e., more than additive, the growth curves from the serial area measurements were compared using a linear mixed model approach over the first 3 weeks after start of therapy (Lindsey, J. K. Models for Repeated Measurements, pp. 100-142, Oxford, 1993). To test for synergistic effects of the combination therapies, an interaction term was included in the model. If the interaction term was significant and the effect was inhibition of growth at a rate greater than additive then the interaction was considered synergistic.
A total of 166 animals, 10 treatment groups, and 6 independent experiments were included in the aggregate analysis. Treatment combinations were compared with respect to in vivo anti-tumor efficacy. The median tumor doubling times were analyzed using the Kruskal-Wallis test and Fisher's exact test was used to compare the proportions of tumor regressions and relapse-free regressions across treatment groups.

PC-3 cells = assay: Combination study of TRA-8 with Paclitaxel (XTT); assay type: cell-based, human; details: Paclitaxel alone, concentrations of up to 200 nM
Method: Human prostate cancer cell line PC-3 is obtained from American Tissue Culture Collection (ATCC) and maintained in F-12K Nutrient Mixture (21127-022, Gibco BRL) containing 10% fetal bovine serum (FBS, Hyclone), 1% L-Glutamine-200 mM (25030-149, Gibco BRL) and 0.5% Penicillin Streptomycin Solution (P-7539, Sigma). RPMI1640 medium (MED-008, IWAKI) supplemented with 10% FBS and 0.5% Penicillin Streptomycin Solution is used in the following experiment. Exponentially growing PC-3 cells are collected by trypsinization and washed twice with fresh medium. The cells are then counted, resuspended in fresh medium at a density of 5×10^4 cells/ml and distributed in triplicate into flat-bottomed 96 well plates (3598, Corning-Coster) in a total volume of 100 μl/well one day before the start of the experiment. A representative anti-cancer drug, Paclitaxel (169-18611, Wako) dissolved in dimethylsulfoxide (10 mg/ml) is diluted in fresh medium and then added to the 96-well plates containing the cells at 50 μl/well. The final concentrations of dimethylsulfoxide are less than 0.1%. […] After incubation for a further 24 hr, 50 μl of Minimum Essential Medium (11095-098, Gibco BRL) containing 1 mg/ml of XTT and […] of PMS is added to the wells and the plates are incubated for 6 hr. OD450 is then measured by SPECTRA MAX 250 (Molecular Devices) and the cell viability is calculated as follows.

2LMP xenografts = assay: Analysis of apoptosis in xenografts (TUNEL); assay type: in vivo, athymic nude mice; details: day 14
Method: One group of mice was untreated. The xenografts were dissected for the study of apoptosis on day 14 after tumor cell injection. The reason for the substantial reduction in treatment intensity compared to our standard treatment protocol was to allow adequate tumor tissue for analysis on day 14. Tunel assay for apoptosis in tumor xenografts was performed as follows. Five-micron paraffin sections of tissue were mounted on Superfrost/Plus slides and heated at 58° C. for 1 h. Tissue sections were deparaffinized in three changes of xylene and rehydrated with one change of absolute ethanol, 95% ethanol, and 70% ethanol, each in 5-min increments. Then, the sections were placed in Tris-buffered saline (0.5M Tris base, 0.15 M NaCl, 0.0002% Triton X-100™, pH 7.6). Apoptotic nuclei were detected using an Apop Tag Peroxidase kit (Intergen, Purchase, N.Y.). Proteinase K (20 μg/ml in distilled deionized H2O) was added to the tissue specimens and incubated at room temperature for 15 min. Endogenous peroxidases were quenched with an aqueous solution of 3% hydrogen peroxide for 5 min. Sections were treated with an equilibration buffer for 30 min and then incubated with the TdT/enzyme (diluted in labeling reaction mix) for 1 h at 37° C. using parafilm covers. During this incubation, the TdT enzyme binds the 3′-OH ends of DNA fragments and catalyzes the addition of digoxigenin-labeled and unlabeled deoxynucleotides. Negative controls were incubated with distilled H2O (diluted in labeling reaction mix) instead of the TdT enzyme. A stop buffer was added for 10 min at room temperature to terminate the labeling reaction. An anti-digoxigenin conjugate was added to each slide for 30 min. The chromagen 3,3′ DAB was used to visualize the labeled 3′ OH end of DNA fragments. The slides were then rinsed in deionized water and lightly counterstained with hematoxylin, dehydrated using graded alcohols and xylene and coverlsipped using Permount. Approximately 10 random fields were evaluated for percentage of Tunel stained and percentage of intensely stained apoptotic bodies throughout the tissue.

CLL B cells = assay: Apoptosis/cytotoxicity in CLL B cells in vitro; assay type: cell-based, human
Jurkat cells = assay: Apoptosis-inducing activity of humanized antibody (XTT, 12 hours); assay type: cell-based, human; details: serial 2-fold dilutions from 100 ng/ml
Method: Jurkat cells cultured in RPMI1640 medium with 10% FCS (Gibco BRL) at 37° C. for 3 days in the presence of 5% CO2 are dispensed into each well of a 96-well microplate (Sumitomo Bakelite) at 50 μl per well. […] Each of the solutions of the expression products thus adjusted to 100 ng/ml is used to produce serial dilutions by repeating serial 2-fold dilution with RPM11640 containing 10% FCS. […] After reacting at 37° C. for 12 hours, 50 μl of 25 μM PMS (phenazine methosulfate; Sigma Chemical Co.) containing 1 mg/ml XTT (2,3-bis[2-methoxy-4-nitro-5-sulfophenyl]-2H-tetrazolium-5-carboxyaniride inner salt; Sigma Chemical Co.) is added (final concentrations of 250 μg/ml for XTT and 5 μM for PMS). After incubating for 3 hours, the absorbance at 450 nm of each well is measured to calculate the cell viability by using the reduction ability of mitochondria as the index.
The viability of the cells in each well is calculated according to the following formula: Viability(%)=100×(a−b)/(c−b) wherein “a” is the measurement of a test well, “b” is the measurement of a well with no cells, and “c” is the measurement of a well with no antibody added.

Question: How did the “Complete Regressions No relapse (%)” value ([1]; number of animals (%)) turn out when `CC(=O)O[C@H]1C(=O)[C@@]2(C)[C@H]([C@H](OC(=O)c3ccccc3)[C@]3(O)C[C@H](OC(=O)[C@H](O)[C@@H](NC(=O)c4ccccc4)c4ccccc4)C(C)=C1C3(C)C)[C@]1(OC(C)=O)CO[C@@H]1C[C@@H]2O` [Paclitaxel] was run?
Answer: The value was 0.

Question: And the “Complete Regressions Total (%)” value ([1]; number of animals (%))?
Answer: The value was 0.

Question: What about the “Tumor Doubling Time (mean)” value ([1]; relative to day 7) of the same molecule?
Answer: Its value is 25 days.

Question: What about the “Tumor Doubling Time (median)” value ([1]; relative to day 7) of the same molecule?
Answer: Its value is 20 days.

Question: What about the cell viability remaining (PC-3 cells) of the same molecule?
Answer: The cell viability remaining was “more than 40%”.

Question: And the TUNEL stained cells (2LMP xenografts; 100 μg TRA-8 days 7, 10, adriamycin 3 mg/kg or paclitaxel 10 mg/kg days 8, 11, untreated 4%)?
Answer: The TUNEL stained cells was 7%.

Question: And the intensely stained cells (2LMP xenografts; same regimen, untreated 1%)?
Answer: Its intensely stained cells is 2%.

Question: Which “sensitivity to induced cytotoxicity” value (CLL B cells) does the source give for `Cn1cc(C2=C(c3cn(CCCN)c4ccccc34)C(=O)NC2=O)c2ccccc21` [BisVIII, Bisindolylmaleimide VIII] here?
Answer: Its value is “sensitive”.

B1: humanized TRA-8: humanized TRA-8 of Example 20, cotransfection of pHB14-1 and pSR/M2-1 (H2 heavy, LM2 light chain) (antibody)
VH: EVMLVESGGGLVQPGGSLRLSCAASGFTFSSYVMSWVRQAPGKGLEWVATISSGGSYTYYPDSVKGRFTISRDNAKNTLYLQMNSLRAEDTAVYYCARRGDSMITTDYWGQGTLVTVSS
light: DIVMTQSPSSLSASVGDRVTITCKASQDVGTAVAWYQQKPGKAPKLLIYWASTRHTGVPSRFSGSGSGTDFTLTISSLQPEDFATYYCQQYSSYRTFGQGTKVEIKRTVAAPSVFIFPPSDEQLKSGTASVVCLLNNFYPREAKVQWKVDNALQSGNSQESVTEQDSKDSTYSLSSTLTLSKADYEKHKVYACEVTHQGLSSPVTKSFNRGEC
Question: Which induction of apoptosis (Jurkat cells) does the source give for B1 here?
Answer: Its induction of apoptosis is “induce apoptosis”.

Reference: patent publication US7704502B2, “Combinations of antibodies selective for DR5 and other therapeutic agents” (The UAB Research Foundation, priority 2000, dated 2010)
